Results on 20 compounds are retold here after US8329913B2, “Carbazole derivative, solvate thereof, or pharmaceutically acceptable salt thereof” (Zeria Pharmaceutical Co., Ltd., priority 2004, dated 2012).

For this assay, the target named is T1, human PPARα (Homo sapiens, UniProt Q07869).
T1 construct: 1.6 kb of DNA fragment including human PPARα gene was collected from the gel; expressed in transfected cells; host or cells: CV-1 cells, transient transfection with pCI-hPPARa, pCI-hRXRa and the reporter pGL3-PPRE3-TK
T1 sequence (Q07869 1-468): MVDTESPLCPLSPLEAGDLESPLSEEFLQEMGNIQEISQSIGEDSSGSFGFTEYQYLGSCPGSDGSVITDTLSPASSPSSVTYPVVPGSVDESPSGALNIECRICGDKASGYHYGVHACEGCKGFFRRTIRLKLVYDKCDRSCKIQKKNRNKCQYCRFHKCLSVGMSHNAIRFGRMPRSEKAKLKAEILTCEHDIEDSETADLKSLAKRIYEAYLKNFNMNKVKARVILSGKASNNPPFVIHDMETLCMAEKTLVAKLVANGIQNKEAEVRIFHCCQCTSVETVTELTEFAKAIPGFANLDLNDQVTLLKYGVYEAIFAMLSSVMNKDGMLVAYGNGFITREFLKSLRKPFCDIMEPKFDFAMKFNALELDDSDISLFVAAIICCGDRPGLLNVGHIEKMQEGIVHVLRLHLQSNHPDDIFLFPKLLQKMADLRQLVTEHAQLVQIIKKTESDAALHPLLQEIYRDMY
T1 sequence (P19793 1-462 partner): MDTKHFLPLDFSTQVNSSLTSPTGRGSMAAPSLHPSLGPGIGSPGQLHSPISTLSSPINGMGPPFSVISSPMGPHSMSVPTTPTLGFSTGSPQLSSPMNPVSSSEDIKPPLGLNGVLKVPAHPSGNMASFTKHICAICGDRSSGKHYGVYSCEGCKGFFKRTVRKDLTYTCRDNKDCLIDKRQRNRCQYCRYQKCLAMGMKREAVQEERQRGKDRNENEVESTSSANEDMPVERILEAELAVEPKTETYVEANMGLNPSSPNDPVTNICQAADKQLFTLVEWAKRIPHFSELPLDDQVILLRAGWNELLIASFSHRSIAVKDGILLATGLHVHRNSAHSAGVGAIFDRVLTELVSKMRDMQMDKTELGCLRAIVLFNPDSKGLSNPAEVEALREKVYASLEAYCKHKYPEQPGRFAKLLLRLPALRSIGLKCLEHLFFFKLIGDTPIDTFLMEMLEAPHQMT
Put plainly: Human PPARα agonist assay (luciferase reporter in transfected CV-1 cells). Type of assay: cell-based. The conditions noted are these: at 1 μM test compound alone; 100% = 1 μM stimulant (GW7647) only; CV-1 cells expressing human PPARα and RXRα. The procedure: CV-1 cells (96 well plate), where human PPARα and RXRα has expressed in the transient transfection of reporter plasmid (see reference 6a) were washed once with PBS (100 μL/well), and then supplemented with 100 μL/well of DMEM medium including 10% of fetal bovine serum to which test compounds at final concentrations of 10 nM, 30 nM, 100 nM, 300 nM, 1 μM, and 3 μM, as well as GW7647 (not limited to GW7647 shown as an example, but may be any PPARα agonist) at a final concentration of 1 nM as a stimulant were added, and incubated in a 5% CO2 incubator at 37° C. for 24 hours. After removing the medium, the CV-1 cells were washed once with PBS (100 μL/well), and supplemented with 60 μL/well of 1× Passive Lysis Buffer (manufactured by Promega Corporation). The CV-1 cells were incubated at room temperature for 30 minutes, stirred, and then by using Dual-Luciferase Reporter Assay System (manufactured by Promega Corporation), luciferase activities of firefly and renilla were measured using 1420 ARVO Multilabel Counter (manufactured by Wallac Oy). Also, the same experiments as that described above were respectively carried out for the cases where only the above-mentioned stimulant (10 nM, 100 nM, 1 μM) were used, where only the above-mentioned test compounds were used, or where neither was used (nonsupplemented), and luciferase activities of firefly and renilla were measured. Values corrected by dividing the firefly luciferase activities by the renilla luciferase activities were calculated as specific activities and used for evaluations. […]
Also, human PPARα agonist activities of the test compounds were evaluated by using a percentage (activity) where the specific activity when nonsupplemented is regarded as 0% and the specific activity in case only 1 μM stimulant was added is regarded as 100%, from the specific activity in case only the test compound is used.
CV-1 cells were cultured in DMEM medium (manufactured by Invitrogen Corporation) including 10% fetal bovine serum (manufactured by Dainippon Pharmaceutical Co., Ltd.) in 225T-Flask (manufactured by Corning Costar). The cells were detached by 0.5 g/L trypsin-0.2 g/L EDTA (ethylene diamine tetra-acetic acid) (manufactured by Invitrogen Corporation), and then suspended in the DMEM medium including 10% fetal bovine serum to a cell concentration of 2×10^5 cells/mL. Thereafter, the cells were seeded into 96 well plate at 2×10^4 cells/0.1 mL/well, incubated in the CO2 incubator at 37° C. overnight, and then the plasmids prepared by the above-mentioned reference 2a, reference 3a, and reference 4a were transfected into cells by using a lipofectamine reagent (manufactured by Invitrogen Corporation) according to the attached manual.
Namely, after CV-1 cells were cultured overnight, the cells were washed with PBS (100 μL/well). Thereafter the cells were incubated for 5 hours at 37° C./5% CO2 in the MEM medium (manufactured by Invitrogen Corporation) including 430 ng/mL of human PPARα expression plasmid (pCI-hPPARa) prepared by the reference 2a, 430 ng/mL of human RXRα expression plasmid (pCI-hRXRa) prepared by the reference 3a, and 140 ng/mL of the reporter plasmid (pGL3-PPRE3-TK) prepared by the reference 4a, 10 ng/mL of phRL-TK vector (manufactured by Promega Corporation) and 2 μL/mL of lipofectamine.

In the case of `COc1cc(Cn2c3ccccc3c3c(OC(C)(C)C(=O)O)cccc32)ccc1OCc1nc(-c2ccncc2)oc1C` [Example 9, 2-{9-[3-methoxy-4-((5-methyl-2-(pyridine-4-yl)-oxazole-4-yl)methoxy)-benzyl]-9H-carbazole-4-yloxy}-2-methyl-propionic acid], the “Human PPARα agonist activities, Activity % (at 1 μM)” value is recorded as 27%.
Take `COc1cc(Cn2c3ccccc3c3c(OCC(C)(C)C(=O)O)cccc32)ccc1OCc1nc(-c2ccco2)oc1C` [Example 23, 3-{9-[4-((2-(furan-2-yl)-5-methyl-oxazole-4-yl)methoxy)-3-methoxy-benzyl]-9H-carbazole-4-yloxy}-2,2-dimethyl-propionic acid]: the “Human PPARα agonist activities, Activity % (at 1 μM)” value amounted to 69%.
As for `COc1cc(Cn2c3ccccc3c3c(OC(C)(C)C(=O)O)cccc32)ccc1OCc1nc(-c2ccco2)oc1C` [Example 7, 2-{9-[4-((2-(furan-2-yl)-5-methyl-oxazole-4-yl)methoxy)-3-methoxy-benzyl]-9H-carbazole-4-yloxy-}2-methyl-propionic acid], the figure is 39%.
In the case of `COc1cc(Cn2c3ccccc3c3c(O[C@H](C)C(=O)[O-])cccc32)ccc1OCc1nc(-c2ccccc2)oc1C.[Na+]` [Example 43, sodium (R)-2-{9-[3-methoxy-4-((5-methyl-2-phenyl-oxazole-4-yl)methoxy)-benzyl]-9H-carbazole-4-yloxy}propionate], the “Human PPARα agonist activities, Activity % (at 1 μM)” value came to 35%.
`CCC(Oc1cccc2c1c1ccccc1n2Cc1ccc(OCc2nc(-c3ccccc3)oc2C)c(OC)c1)C(=O)O` (racemic) [Example 5, (±)-2-{9-[3-methoxy-4-((5-methyl-2-phenyl-oxazole-4-yl)methoxy)-benzyl]-9H-carbazole-4-yloxy}butyric acid]: the “Human PPARα agonist activities, Activity % (at 1 μM)” value came to 27%.
As for `COc1cc(Cn2c3ccccc3c3c(OCC(C)(C)C(=O)O)cccc32)ccc1OCc1nc(-c2ccncc2)oc1C` [Example 25, 3-{9-[3-methoxy-4-((5-methyl-2-pyridine-4-yl-oxazole-4-yl)methoxy)-benzyl]-9H-carbazole-4-yloxy}-2,2-dimethyl-propionic acid], the figure is 47%.
In the case of `COc1cc(Cn2c3ccccc3c3c(OC(C)(C)C(=O)O)cccc32)ccc1OCc1nc(-c2ccccc2)sc1C` [Example 15, 2-{9-[3-methoxy-4-((5-methyl-2-phenyl-thiazole-4-yl)methoxy)-benzyl]-9H-carbazole-4-yloxy}-2-methyl-propionic acid] it was 73%; in that of `COc1cc(Cn2c3ccccc3c3c(OC(C)C(=O)[O-])cccc32)ccc1OCc1nc(-c2ccccc2)oc1C.[Na+]` (racemic) [Example 30], 35%; in that of `Cc1oc(-c2ccccc2)nc1COc1ccc(Cn2c3ccccc3c3c(OC(C)(C)C(=O)O)cccc32)cc1` [Example 13, 2-methyl-2-{9-[4-((5-methyl-2-phenyl-oxazole-4-yl)methoxy)-benzyl]-9H-carbazole-4-yloxy}propionic acid], 37%.
Consider `COc1cc(Cn2c3ccccc3c3c(OC(C)(C)C(=O)[O-])cccc32)ccc1OCc1nc(-c2cccs2)oc1C.[Na+]` [Example 32], for which the “Human PPARα agonist activities, Activity % (at 1 μM)” value is 66%.
Regarding `COc1cc(Cn2c3ccccc3c3c(OCC(C)(C)C(=O)O)cccc32)ccc1OCc1nc(-c2ccccc2)oc1C` [Example 22, 3-{9-[3-methoxy-4-((5-methyl-2-phenyl-oxazole-4-yl)methoxy)-benzyl]-9H-carbazole-4-yloxy}-2,2-dimethyl-propionic acid], the “Human PPARα agonist activities, Activity % (at 1 μM)” value was 40%.
As for `COc1cc(Cn2c3ccccc3c3c(OCCC(C)C(=O)[O-])cccc32)ccc1OCc1nc(-c2ccccc2)oc1C.[Na+]` (racemic) [Example 37], the figure is 20%; as for `CC[C@H](Oc1cccc2c1c1ccccc1n2Cc1ccc(OCc2nc(-c3ccccc3)oc2C)c(OC)c1)C(=O)[O-].[Na+]` [Example 38, sodium (S)-(+)-2-{9-[3-methoxy-4-((5-methyl-2-phenyl-oxazole-4-yl)methoxy)-benzyl]-9H-carbazole-4-yloxy}butyrate], 32%.
In the case of `COc1cc(Cn2c3ccccc3c3c(OCCC(C)C(=O)O)cccc32)ccc1OCc1nc(-c2ccccc2)oc1C` (racemic) [Example 27, (±)-4-{9-[3-methoxy-4-((5-methyl-2-phenyl-oxazole-4-yl)methoxy)-benzyl]-9H-carbazole-4-yloxy}-2-methyl-butyric acid] it was 23%; in that of `COc1cc(Cn2c3ccccc3c3c(OCC(C)(C)C(=O)O)cccc32)ccc1OCc1nc(-c2cccs2)oc1C` [Example 24, 3-{9-[3-methoxy-4-((5-methyl-2-(thiophene-2-yl)-oxazole-4-yl)methoxy)-benzyl]-9H-carbazole-4-yloxy}-2,2-dimethyl-propionic acid], 64%; in that of `CCC(Oc1cccc2c1c1ccccc1n2Cc1ccc(OCc2nc(-c3ccccc3)oc2C)c(OC)c1)C(=O)[O-].[Na+]` (centres unmarked) [Example 31], 21%.
Take `COc1cc(Cn2c3ccccc3c3c(OC(C)(C)C(=O)O)cccc32)ccc1OCc1sc(-c2ccccc2)nc1C` [Example 16, 2-{9-[3-methoxy-4-((4-methyl-2-phenyl-thiazole-5-yl)methoxy)-benzyl]-9H-carbazole-4-yloxy}-2-methyl-propionic acid]: the “Human PPARα agonist activities, Activity % (at 1 μM)” value is on record as 56%.
With `COc1cc(Cn2c3ccccc3c3c(OC(C)(C)C(=O)O)cccc32)ccc1OCc1nc(-c2cccs2)oc1C` [Example 8, 2-{9-[3-methoxy-4-((5-methyl-2-(thiophene-2-yl)-oxazole-4-yl)methoxy)-benzyl]-9H-carbazole-4-yloxy}-2-methyl-propionic acid], the “Human PPARα agonist activities, Activity % (at 1 μM)” value turned out to be 60%.
In the case of `COc1cc(Cn2c3ccccc3c3c(OC(C)C(=O)O)cccc32)ccc1OCc1nc(-c2ccccc2)oc1C` (racemic) [Example 4, (±)-2-{9-[3-methoxy-4-((5-methyl-2-phenyl-oxazole-4-yl)methoxy)-benzyl]-9H-carbazole-4-yloxy}propionic acid] it was 21%; in that of `COc1cc(Cn2c3ccccc3c3c(OCC(C)(C)C(=O)[O-])cccc32)ccc1OCc1nc(-c2ccccc2)oc1C.[Na+]` [Example 34], 41%.
